The record followed here is patent US9334279B2, “Hepatitis C virus inhibitors” (BRISTOL-MYERS SQUIBB COMPANY, priority 2012, dated 2016).

The term EC50 denotes the concentration needed to bring the measured effect to its halfway point.

One experiment deals with HCV GT1b(Con1) replicon. The experiment in a line: HCV replicon luciferase reporter assay, genotype 1b. The experiment is classed as cell-based, HCV genotype 1b. The following applies: Hepatitis C virus, 72 h, HUH-7 cells, Renilla luciferase, 3 days incubation, read-out: LE_1b (EC50, range). The source says:
An HCV GT1b(Con1) replicon cell system was established as described by Lohmann V, Korner F, Koch J, Herian U, Theilmann L, Bartenschlager R., Science 285(5424):110-3 (1999) and modified to introduce a luciferase reporter (Krieger N, Lohmann V, and Bartenschlager R, J. Virol. 75(10):4614-4624 (2001)). cDNA encoding a humanized form of the Renilla luciferase gene, and a linker sequence fused directly to the 3′-end of the luciferase gene were introduced into the replicon construct using an Asc1 restriction site located in core, directly upstream of the neomycin marker gene. The adaptive mutation at position 1179 (serine to isoleucine) was also introduced (Blight K J, Kolykhalov, A A, Rice, C M, Science 290(5498):1972-1974). A stable cell line constitutively expressing this HCV replicon construct was generated by first linearizing plasmid DNAs with ScaI. RNA transcripts were synthesized in vitro using the T7 MegaScript transcription kit (Ambion, Austin, Tex.) according to manufacturer's directions. In vitro transcripts of the cDNA were transfected into the human hepatoma cell line, HUH-7. […] Resulting cell lines were characterized for positive and negative strand RNA production and protein production over time.
(§1) HCV replicon luciferase assays were developed to monitor the inhibitory effects of compounds described in the disclosure on HCV genotypes 1a and 1b viral replication. HUH-7 cells, constitutively expressing the HCV replicon, were grown in Dulbecco's Modified Eagle Media (DMEM) (Gibco-BRL) containing 10% Fetal calf serum (FCS) (Sigma) and 1 mg/mL G418 (Gibco-BRL). Compounds were serially diluted 3 folds in DMSO for a twenty-point titration and subsequently transferred to sterile 384-well tissue-culture treated plates (Corning cat #3571). The plates were then seeded with 50 μL of cells at a density of 3.0×10^3 cells/well in DMEM containing 4% FCS (final DMSO concentration at 0.5%). After 3 days incubation at 37° C., cells were analyzed for Renilla Luciferase activity using the EnduRen as substrate (Promega cat #E6485). The EnduRen substrate was diluted in DMEM and then added to the plates to a final concentration of 7.5 μM. The plates were incubated for 2 hrs at 37° C. and then read immediately for 30 seconds with Viewlux Imager (PerkinElmer) using a luminescence program. To assess cytotoxicity of compounds, CC50 values were generated by multiplexing the EnduRen-containing plates with Cell Titer-Blue (Promega, cat #G8082). Cell-Titer Blue (3 μL) was added to each well and incubated for 8 hrs at 37° C. The fluorescence signal from each well was read, with an excitation wavelength at 525/10 nm and an emission wavelength of 598/10 nm, using the Viewlux Imager.
(§2) The EC50 values for compounds were calculated by using a four-parameter logistic equation: y=A+[…])/(1+((C/x)^D))), where A and B denotes minimal and maximal % inhibition, respectively, C is the EC50, D is the hill slope and x represents compound concentration.
(Replicon systems follow genome replication, usually without infectious particles.)

A further experiment relates to HCV GT1a(H77) replicon. The experiment in a line: HCV replicon luciferase reporter assay, genotype 1a. The following applies: Hepatitis C virus, 72 h, HUH-7 cells, Renilla luciferase, 3 days incubation, read-out: LE_1a (EC50, range). The experiment is classed as cell-based, HCV genotype 1a.
Excerpt: A stable HCV GT1a(H77) replicon luciferase reporter cell line (Yanagi M, Purcell RH, Emerson S U, et al. Transcripts from a single full-length cDNA clone of hepatitis C virus are infectious when directly transfected into the liver of a chimpanzee. Proc Natl Acad Sci USA 1997; 94(16):8738-8743) was generated as described previously for the genotype 1b(Con1) replicon luciferase cell line. The replicon construct was modified by introducing mutations into the genes encoding the NS3 helicase domain (proline replaced by leucine at position 1496) and NS5A (serine to isoleucine at position 2204) to improve replication in cell culture.
as §1, §2

With `CC(C)Oc1ccc(-c2cc(O[C@@H]3C[C@H]4C(=O)N[C@]5(C(=O)NS(=O)(=O)C6(C)CC6)C[C@H]5/C=C\CC[C@@H](C)C[C@@H](C)[C@H](NC(=O)OC(C)(C)C(F)(F)F)C(=O)N4C3)cc(-n3cccn3)n2)cc1` [Compound 1013, 1,1,1-trifluoro-2-methylpropan-2-yl ((2R,6S,7R,9R,13aS,14aR,16aS,Z)-2-((2-(4-isopropoxyphenyl)-6-(1H-pyrazol-1-yl)pyridin-4-yl)oxy)-7,9-dimethyl-14a-(((1-methylcyclopropyl)sulfonyl)carbamoyl)-5,16-dioxo-1,2,3,5,6,7,8,9,10,11,13a,14,14a,15,16,16a-hexadecahydrocyclopropa[e]pyrrolo[1,2-a][1,4]diazacyclopentadecin-6-yl)carbamate], the half-maximal effective concentration (EC50) in the experiment with HCV GT1b(Con1) replicon and in the experiment with HCV GT1a(H77) replicon was 1.01 to 5 nM each time.
Regarding `CC(C)Oc1ccc(-c2cc(O[C@@H]3C[C@H]4C(=O)N[C@]5(C(=O)NS(=O)(=O)C6(C)CC6)C[C@H]5/C=C\CC[C@H](C)C[C@@H](C)[C@H](NC(=O)OC(C)(C)C(F)(F)F)C(=O)N4C3)cc(-n3cccn3)n2)cc1` [Compound 1014, 1,1,1-trifluoro-2-methylpropan-2-yl ((2R,6S,7R,9S,13aS,14aR,16aS,Z)-2-((2-(4-isopropoxyphenyl)-6-(1H-pyrazol-1-yl)pyridin-4-yl)oxy)-7,9-dimethyl-14a-(((1-methylcyclopropyl)sulfonyl)carbamoyl)-5,16-dioxo-1,2,3,5,6,7,8,9,10,11,13a,14,14a,15,16,16a-hexadecahydrocyclopropa[e]pyrrolo[1,2-a][1,4]diazacyclopentadecin-6-yl)carbamate], the EC50 in the experiment with HCV GT1b(Con1) replicon is 5.01 to 35 nM; with HCV GT1a(H77) replicon, 35 to 359 nM.
The like results for `Cc1cc(O[C@@H]2C[C@H]3C(=O)N[C@]4(C(=O)NS(=O)(=O)C5(C)CC5)C[C@H]4/C=C\CC[C@@H](C)C[C@@H](C)[C@H](NC(=O)OC(C)(C)C(F)(F)F)C(=O)N3C2)cc(-c2cncs2)n1` [Compound 1015, 1,1,1-trifluoro-2-methylpropan-2-yl ((2R,6S,7R,9R,13aS,14aR,16aS,Z)-7,9-dimethyl-2-((2-methyl-6-(thiazol-5-yl)pyridin-4-yl)oxy)-14a-(((1-methylcyclopropyl)sulfonyl)carbamoyl)-5,16-dioxo-1,2,3,5,6,7,8,9,10,11,13a,14,14a,15,16,16a-hexadecahydrocyclopropa[e]pyrrolo[1,2-a][1,4]diazacyclopentadecin-6-yl)carbamate] were, in that order, 5.01 to 35 nM and 5.01 to 35 nM.
For `Cc1cc(O[C@@H]2C[C@H]3C(=O)N[C@]4(C(=O)NS(=O)(=O)C5(C)CC5)C[C@H]4/C=C\CC[C@H](C)C[C@@H](C)[C@H](NC(=O)OC(C)(C)C(F)(F)F)C(=O)N3C2)cc(-c2cncs2)n1` [Compound 1016, 1,1,1-trifluoro-2-methylpropan-2-yl ((2R,6S,7R,9S,13aS,14aR,16aS,Z)-7,9-dimethyl-2-((2-methyl-6-(thiazol-5-yl)pyridin-4-yl)oxy)-14a-(((1-methylcyclopropyl)sulfonyl)carbamoyl)-5,16-dioxo-1,2,3,5,6,7,8,9,10,11,13a,14,14a,15,16,16a-hexadecahydrocyclopropa[e]pyrrolo[1,2-a][1,4]diazacyclopentadecin-6-yl)carbamate], in that order: 35 to 359 nM and 35 to 359 nM.
